Values after ≈ are worked out from the molar mass of the structure shown. Active and inactive are the calls of the source. The rule behind the calls is not given here.
Assays:
Rattus norvegicus [1] = test: Hyperglycemic activity in Sprague-Dawley rat assessed as effect on blood glucose level at 30 to 100 mg/kg, qd by glucometer; type: functional, organism-based; details: dose 30-100 mg/kg
[2] = biological target: Free fatty acid receptor 1 (Mus musculus, UniProt Q76JU9); test: Positive allosteric modulation of mouse GPR40
[3] = Total AUC in mouse at 1 mg/kg, po; type: ADME, organism-based; set-up: dose 1 mg/kg, route po; details: in vivo
[4] = Clearance in rat at 3 mg/kg, iv; type: ADME, organism-based; details: in vivo
[5] = Permeability of compound across apical to basolateral side in dog MDCK cells; type: ADME, cell-based, Canis lupus familiaris; details: read-out: permeability
[6] = Solubility of the compound in FaSSIF at pH 6.5; type: ADME
[7] = Toxicity in rat assessed as vacuolation in pancrease at 100 mg/kg measured for 28 days; type: organism-based; details: in vivo, time 28 day
[8] = biological target: T1, Free fatty acid receptor 1 (Homo sapiens, UniProt O14842); test: Positive allosteric modulation of human GPR40 expressed in HEK293 cells assessed as cAMP accumulation; type: cell-based
[9] = Total AUC in rat at 1 mg/kg, po; type: ADME, organism-based; set-up: dose 1 mg/kg, route po; details: in vivo
[10] = Clearance in mouse at 3 mg/kg, iv; type: ADME, organism-based; details: in vivo
[11] = Cmax in rat at 12 mg/kg qd; type: ADME, organism-based; set-up: dose 12 mg/kg; details: in vivo
[12] = AUC (0 to 24 hrs) in rat at 12 mg/kg qd; type: ADME, organism-based; set-up: dose 12 mg/kg; details: in vivo
[13] = Volume of distribution at steady state in mouse at 3 mg/kg, iv; type: ADME, organism-based; details: in vivo, read-out: Vdss
[14] = Solubility in phosphate buffer at pH 6.5; type: physicochemical
[15] = Metabolic stability in rat liver microsome assessed as parent compound remaining after 10 mins; type: ADME; details: liver microsomes, read-out: Stability
Mus musculus [16] = species: Mus musculus; test: Anti-hyperglycemic activity in wild type mouse assessed as reduction in plasma glucose level by OGTT analysis; type: functional, organism-based
[17] = AUC (0-7hrs) in mouse at 1 mg/kg; type: ADME, organism-based; set-up: dose 1 mg/kg; details: in vivo
[18] = Plasma protein binding in human assessed as fraction unbound; type: ADME, cell-free
Rattus norvegicus [19] = test: Anti-hyperglycemic activity against Sprague-Dawley rat assessed as reduction in plasma glucose AUC at 0.3 mg/kg, po measured for 20 to 120 mins in presence of BMS-538305 by OGTT analysis; type: functional; set-up: scale not given: the % may be the effect or the level left; details: time 20-120 min
[20] = Toxicity in rat assessed as NOAEL by measuring AUC (0 to 24 hrs) measured for 28 days; details: in vivo, time 28 day
[21] = biological target: T1, Free fatty acid receptor 1; test: Positive allosteric modulation of human GPR40 by calcium based FLIPR analysis
[22] = Volume of distribution at steady state in rat at 3 mg/kg, iv; type: ADME, organism-based; details: in vivo, read-out: Vdss
[23] = Oral bioavailability in mouse at 1 mg/kg; type: ADME, organism-based; details: in vivo
Rattus norvegicus [24] = test: Anti-hyperglycemic activity against Sprague-Dawley rat assessed as reduction in plasma glucose AUC at 0.3 mg/kg, po measured for 20 to 120 mins by OGTT analysis; type: functional, organism-based; details: time lower 20.0 min, time upper […]
[25] = Tmax in rat at 12 mg/kg qd; type: ADME, organism-based; details: in vivo
Cytochrome P450 2B6 = biological target: T2, Cytochrome P450 2B6 (Homo sapiens, UniProt P20813); test: Inhibition of CYP2B6 in human liver microsomes; type: ADME, Microsome
T2 sequence (P20813 whole entry): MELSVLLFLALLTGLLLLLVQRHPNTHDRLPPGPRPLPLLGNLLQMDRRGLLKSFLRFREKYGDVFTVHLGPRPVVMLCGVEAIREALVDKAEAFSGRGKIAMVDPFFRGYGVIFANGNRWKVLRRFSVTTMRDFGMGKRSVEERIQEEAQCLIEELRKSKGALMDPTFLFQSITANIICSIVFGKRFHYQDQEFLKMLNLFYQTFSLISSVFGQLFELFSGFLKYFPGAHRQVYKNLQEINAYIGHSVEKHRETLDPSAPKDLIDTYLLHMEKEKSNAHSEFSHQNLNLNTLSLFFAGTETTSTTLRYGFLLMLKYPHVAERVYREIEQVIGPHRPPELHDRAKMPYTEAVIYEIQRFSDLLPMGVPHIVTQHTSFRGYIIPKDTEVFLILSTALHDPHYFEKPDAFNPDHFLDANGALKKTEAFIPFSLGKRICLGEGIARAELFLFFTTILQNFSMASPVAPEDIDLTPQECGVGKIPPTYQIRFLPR

[26] = Solubility of the compound in FeSSIF at pH 6.5; type: ADME
[27] = Solubility of the compound in FeSSIF at pH 5; type: ADME
[28] = Toxicity in rat assessed as reduction in cell number at 100 mg/kg measured for 28 days; type: organism-based; details: in vivo, time 28 day
[29] = Cmax in rat at 300 mg/kg qd; type: ADME, organism-based; set-up: dose 300 mg/kg; details: in vivo
[30] = Metabolic stability in mouse liver microsome assessed as parent compound remaining after 10 mins; type: ADME; details: liver microsomes, read-out: Stability
[31] = AUC (0 to 24 hrs) in rat at 300 mg/kg qd; type: ADME, organism-based; set-up: dose 300 mg/kg; details: in vivo
[32] = Tmax in rat at 60 mg/kg qd; type: ADME, organism-based; details: in vivo
[33] = Cmax in mouse at 1 mg/kg, po; type: ADME, organism-based; set-up: dose 1 mg/kg, route po; details: in vivo
[34] = Half life in mouse at 3 mg/kg, iv; type: ADME, organism-based; details: in vivo
Mus musculus [35] = species: Mus musculus; test: Anti-hyperglycemic activity in GPR40 knockout mouse assessed as reduction in plasma glucose level by OGTT analysis; type: functional, organism-based
[36] = Plasma protein binding in mouse assessed as fraction unbound; type: ADME, cell-free
[37] = AUC (0 to 24 hrs) in rat at 100 mg/kg, po qd; type: ADME, organism-based; set-up: dose 100 mg/kg, route po; details: in vivo
[38] = Lipophilicity, logD of compound; type: physicochemical; details: octanol/water
[39] = AUC (0 to 24 hrs) in rat at 60 mg/kg qd; type: ADME, organism-based; set-up: dose 60 mg/kg; details: in vivo
[40] = Toxicity in rat assessed as reduction in cell size at 100 mg/kg measured for 28 days; type: organism-based; details: in vivo, time 28 day
Cytochrome P450 2C8 = biological target: T3, Cytochrome P450 2C8 (Homo sapiens, UniProt P10632); test: Inhibition of CYP2C8 in human liver microsomes; type: ADME, Microsome
T3 sequence (P10632 whole entry): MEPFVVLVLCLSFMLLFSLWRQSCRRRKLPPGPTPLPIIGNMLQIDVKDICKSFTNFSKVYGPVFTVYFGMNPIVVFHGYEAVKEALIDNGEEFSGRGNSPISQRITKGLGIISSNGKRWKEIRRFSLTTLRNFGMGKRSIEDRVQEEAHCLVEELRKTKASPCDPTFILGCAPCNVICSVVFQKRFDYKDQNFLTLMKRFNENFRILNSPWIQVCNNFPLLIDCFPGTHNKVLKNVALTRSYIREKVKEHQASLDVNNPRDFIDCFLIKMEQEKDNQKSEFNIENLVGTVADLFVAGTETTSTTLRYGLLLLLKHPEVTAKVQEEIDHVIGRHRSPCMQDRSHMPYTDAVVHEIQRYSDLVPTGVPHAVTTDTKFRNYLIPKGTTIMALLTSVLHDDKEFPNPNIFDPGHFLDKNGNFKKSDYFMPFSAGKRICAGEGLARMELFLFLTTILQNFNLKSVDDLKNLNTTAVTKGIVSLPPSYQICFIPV

[41] = Half life in rat at 3 mg/kg, iv; type: ADME, organism-based; details: in vivo
Cytochrome P450 2C9 = Cytochrome P450 2C9 (Homo sapiens, UniProt P11712); test: Inhibition of CYP2C9 in human liver microsomes; type: ADME, Microsome
Cytochrome P450 3A4 = Cytochrome P450 3A4 (Homo sapiens, UniProt P08684); test: Inhibition of CYP3A4 in human liver microsomes; type: ADME, Microsome
[42] = Cmax in rat at 1 mg/kg, po; type: ADME, organism-based; set-up: dose 1 mg/kg, route po; details: in vivo
[43] = Metabolic stability in human liver microsome assessed as parent compound remaining after 10 mins; type: ADME; details: liver microsomes, read-out: Stability
[44] = Cmax in mouse at 1 mg/kg; type: ADME, organism-based; set-up: dose 1 mg/kg; details: in vivo
Rattus norvegicus [45] = test: Anti-hyperglycemic activity against Sprague-Dawley rat assessed as reduction in plasma glucose level at 3 mg/kg, po measured for 20 to 120 mins by OGTT analysis; type: functional, organism-based; details: time lower 20.0 min, time upper […]
[46] = Toxicity in rat assessed as NOAEL at 100 mg/kg measured for 28 days; type: organism-based; details: in vivo, time 28 day
Rattus norvegicus [47] = test: Anti-hyperglycemic activity against Sprague-Dawley rat assessed as reduction in plasma glucose AUC at 0.3 mg/kg, po measured at 3 hrs in presence of BMS-538305 by OGTT analysis; type: functional; set-up: scale not given: the % may be the effect or the level left
[48] = Tmax in rat at 300 mg/kg qd; type: ADME, organism-based; details: in vivo
[49] = Oral bioavailability in rat at 1 mg/kg; type: ADME, organism-based; details: in vivo
[50] = Cmax in rat at 60 mg/kg qd; type: ADME, organism-based; set-up: dose 60 mg/kg; details: in vivo
Cytochrome P450 2C19 = Cytochrome P450 2C19 (Homo sapiens, UniProt P33261); test: Inhibition of CYP2C19 in human liver microsomes; type: ADME, Microsome
Cytochrome P450 2D6 = Cytochrome P450 2D6 (Homo sapiens, UniProt P10635); test: Inhibition of CYP2D6 in human liver microsomes; type: ADME, Microsome
Cytochrome P450 2D6, sequence (P10635 whole entry): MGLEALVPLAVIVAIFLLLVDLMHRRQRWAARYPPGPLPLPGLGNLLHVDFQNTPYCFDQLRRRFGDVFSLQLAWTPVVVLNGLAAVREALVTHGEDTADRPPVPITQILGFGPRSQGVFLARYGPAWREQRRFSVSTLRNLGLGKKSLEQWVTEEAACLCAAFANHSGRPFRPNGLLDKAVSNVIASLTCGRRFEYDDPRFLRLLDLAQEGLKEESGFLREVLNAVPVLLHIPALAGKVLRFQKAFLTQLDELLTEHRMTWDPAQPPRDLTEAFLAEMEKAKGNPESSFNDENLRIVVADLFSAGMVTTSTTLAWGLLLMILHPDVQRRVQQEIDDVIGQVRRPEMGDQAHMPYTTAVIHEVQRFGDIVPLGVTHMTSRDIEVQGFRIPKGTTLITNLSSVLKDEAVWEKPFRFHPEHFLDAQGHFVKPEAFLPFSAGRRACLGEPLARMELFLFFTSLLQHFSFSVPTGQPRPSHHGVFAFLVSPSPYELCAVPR

T1 sequence (O14842 whole entry): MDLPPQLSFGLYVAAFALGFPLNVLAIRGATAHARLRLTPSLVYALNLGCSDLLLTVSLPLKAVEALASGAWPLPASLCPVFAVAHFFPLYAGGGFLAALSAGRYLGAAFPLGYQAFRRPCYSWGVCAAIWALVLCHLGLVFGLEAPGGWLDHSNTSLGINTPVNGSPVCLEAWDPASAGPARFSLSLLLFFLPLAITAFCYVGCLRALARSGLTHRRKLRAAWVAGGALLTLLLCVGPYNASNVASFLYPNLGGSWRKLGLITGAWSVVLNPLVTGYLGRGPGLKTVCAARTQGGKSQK
Cytochrome P450 3A4, sequence (P08684 whole entry): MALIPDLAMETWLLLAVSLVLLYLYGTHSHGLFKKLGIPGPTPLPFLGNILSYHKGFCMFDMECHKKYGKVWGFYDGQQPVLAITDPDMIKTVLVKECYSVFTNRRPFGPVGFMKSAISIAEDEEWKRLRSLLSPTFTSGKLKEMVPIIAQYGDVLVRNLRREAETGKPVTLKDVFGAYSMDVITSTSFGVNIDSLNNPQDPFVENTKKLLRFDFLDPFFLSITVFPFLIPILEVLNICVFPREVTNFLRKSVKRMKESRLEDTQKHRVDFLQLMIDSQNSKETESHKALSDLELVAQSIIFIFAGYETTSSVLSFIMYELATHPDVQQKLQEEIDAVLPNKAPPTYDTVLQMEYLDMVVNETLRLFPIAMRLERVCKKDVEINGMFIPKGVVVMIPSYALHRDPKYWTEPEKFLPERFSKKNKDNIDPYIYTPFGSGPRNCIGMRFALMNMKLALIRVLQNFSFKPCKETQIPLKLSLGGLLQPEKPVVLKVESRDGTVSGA
Cytochrome P450 2C9, sequence (P11712 whole entry): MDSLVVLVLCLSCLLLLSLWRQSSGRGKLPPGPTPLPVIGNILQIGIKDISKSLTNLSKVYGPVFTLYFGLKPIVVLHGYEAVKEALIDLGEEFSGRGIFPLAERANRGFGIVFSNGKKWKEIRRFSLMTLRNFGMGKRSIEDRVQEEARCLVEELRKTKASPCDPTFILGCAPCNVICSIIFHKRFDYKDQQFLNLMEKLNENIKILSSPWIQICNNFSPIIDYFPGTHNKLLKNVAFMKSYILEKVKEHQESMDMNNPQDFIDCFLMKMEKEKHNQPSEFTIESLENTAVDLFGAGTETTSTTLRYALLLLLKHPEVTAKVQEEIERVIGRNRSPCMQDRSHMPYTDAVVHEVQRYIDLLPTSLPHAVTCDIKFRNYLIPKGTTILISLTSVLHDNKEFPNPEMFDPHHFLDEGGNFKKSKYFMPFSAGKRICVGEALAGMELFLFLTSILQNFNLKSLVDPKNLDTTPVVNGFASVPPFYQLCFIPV
Cytochrome P450 2C19, sequence (P33261 whole entry): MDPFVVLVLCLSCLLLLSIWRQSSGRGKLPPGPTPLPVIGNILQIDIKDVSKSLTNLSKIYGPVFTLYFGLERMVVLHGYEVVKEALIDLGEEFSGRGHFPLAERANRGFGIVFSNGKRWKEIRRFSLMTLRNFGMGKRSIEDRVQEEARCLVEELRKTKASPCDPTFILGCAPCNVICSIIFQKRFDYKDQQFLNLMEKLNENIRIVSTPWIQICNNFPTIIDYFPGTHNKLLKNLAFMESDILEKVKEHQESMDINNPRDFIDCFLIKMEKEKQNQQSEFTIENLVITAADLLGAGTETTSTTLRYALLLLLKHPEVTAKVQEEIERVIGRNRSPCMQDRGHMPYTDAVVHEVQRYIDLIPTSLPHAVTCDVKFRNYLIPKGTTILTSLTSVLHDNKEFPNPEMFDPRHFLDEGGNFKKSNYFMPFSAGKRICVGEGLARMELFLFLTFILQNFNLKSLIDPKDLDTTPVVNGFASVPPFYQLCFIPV
Free fatty acid receptor 1 (Mus musculus, UniProt Q76JU9), sequence (Q76JU9 whole entry): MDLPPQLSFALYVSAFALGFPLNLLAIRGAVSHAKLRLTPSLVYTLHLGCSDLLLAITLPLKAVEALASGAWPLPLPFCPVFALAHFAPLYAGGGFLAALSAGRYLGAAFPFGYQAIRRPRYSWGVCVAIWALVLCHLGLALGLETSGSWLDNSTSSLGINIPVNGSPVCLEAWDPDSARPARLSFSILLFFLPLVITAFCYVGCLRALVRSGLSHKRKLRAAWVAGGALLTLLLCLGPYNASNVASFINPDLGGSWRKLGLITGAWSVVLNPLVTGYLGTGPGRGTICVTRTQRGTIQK

In the case of `COCCCO[C@H]1CN(c2ccc(O[C@@H]3CCN(c4cc(OC)ncc4Cl)C[C@H]3C)cc2)[C@@H](CC(=O)O)[C@@H]1C`, the Activity (Rattus norvegicus [1]) is reported as “inactive”, the EC50 [2] is reported as 14 nM and the AUC [3] is reported as 4.4 µM·h. It also gave a clearance [4] of 5.9 mL/min/kg, a Papp A→B [5] of 24.3 ×10⁻⁶ cm/s and a solubility [6] of 239 µg/mL (≈ 425 µM). For the same molecule, the Activity [7] was “Toxic”, the EC50 [8] was 1800 nM and the AUC [9] was 2.2 µM·h. For the same molecule, the clearance [10] was 7.9 mL/min/kg, the Cmax [11] was 11 µM and the AUC [12] was 84 µM·h. It also gave a Vd [13] of 1.4 L/kg, a solubility [14] of 28 µg/mL (≈ 49.8 µM) and a remaining at 10 min [15] of 77%. For the same molecule, the Activity (Mus musculus [16]) was “Active”, the AUC(0-t) [17] was 4.4 µM·h and the Fu [18] was less than 0.1%. For the same molecule, the Activity (Rattus norvegicus [19]) was 26%, the AUC at […] [20] was 53 µM·h and the EC50 [21] was 49 nM. For the same molecule, the Vd [22] was 1.1 L/kg, the bioavailability [23] was 100% and the Activity (Rattus norvegicus [24]) was “inactive”. The Tmax [25] was 2 h, the IC50 (Cytochrome P450 2B6) was 29 µM and the solubility [26] was 1300 µg/mL (≈ 2320 µM). For the same molecule, the solubility [27] was 383 µg/mL (≈ 681 µM), the Activity [28] was “Non-Toxic” and the Cmax [29] was 151 µM. The remaining at 10 min [30] was 79%, the AUC [31] was 3150 µM·h and the Tmax [32] was 2 h. The Cmax [33] was 2800 nM, the half-life [34] was 204 min and the Activity (Mus musculus [35]) was “inactive”. It also gave a Fu [36] of 0.9%, an AUC [37] of 1480 µM·h and a logD [38] of 1.32. The AUC [39] was 534 µM·h, the Activity [40] was “Non-Toxic” and the IC50 (Cytochrome P450 2C8) was 8.3 µM. For the same molecule, the half-life [41] was 216 min, the IC50 (Cytochrome P450 2C9) was 34 µM and the IC50 (Cytochrome P450 3A4) was 40 µM. For the same molecule, the Cmax [42] was 1600 nM, the remaining at 10 min [43] was 100% and the Cmax [44] was 2800 nM. The Activity (Rattus norvegicus [45]) was “Active”, the Activity [46] was “Non-Toxic” and the Activity (Rattus norvegicus [47]) was 148%. For the same molecule, the Tmax [48] was 2 h, the bioavailability [49] was 100% and the Cmax [50] was 49 µM. It also gave an IC50 (Cytochrome P450 2C19) of 40 µM and an IC50 (Cytochrome P450 2D6) of 40 µM.

Source: ChEMBL document CHEMBL5257080, “Optimization of physicochemical properties of pyrrolidine GPR40 AgoPAMs results in a differentiated profile with improved pharmacokinetics and reduced off-target activities” (Bioorg Med Chem, 2023)
